Where two headings read alike, the source gives them in different places. Values belong to the compound of their own block, whether it stands above or below them.
How the values were obtained:
[1] = system: Male CD rats; assay: Rat MEST model (seizure threshold, CC50); assay type: in vivo
Method: This work was conducted in compliance with the Home Office Guidance on the operation of the Animals (Scientific Procedures) Act 1986 and GlaxoSmithKline ethical standards. Male CD rats (100-145 g) were supplied by Charles River, UK. Animals were group housed (6 animal per cage) with free access to food (Standard rodent chow; Harlan, UK) and water under a 12 h light/dark cycle (lights on at 0700 h). A period of at least one week between arrival at GSK and the study was allowed in all cases.
Animals were administered a test compound at the appropriate dose, route and pre-treatment time and returned to their home cage. Testing occurred in a separate room from that used for housing. Testing involved determining the threshold for tonic hindlimb extensor seizures using a Hugo Sachs Electronik stimulator which delivers a constant current of 0.3 second duration, 50 Hz, sinewave form, fully adjustable between 1 and 300 mA. Stimuli were delivered via corneal electrodes (Stean T O, Atkins A R, Heidbreder C A, Quinn L P, Trail B K, Upton N. (2005) Br J. Pharmacol. 144(5):628-35). Seizure threshold was determined using the ‘up and down’ method of Kimball et al. (1957)(Kimball A W, Burnett W T Jr, Doherty D G. (1957) Radiat Res. 7(1):1-12). The first animal tested in each group was stimulated with a current that might be expected to be close to the threshold for induction of a seizure. If a tonic seizure was not induced, then next animal in the group received a stimulus 5 mA higher. If a tonic seizure was induced, then the next animal received a stimulus 5 mA lower. This is repeated for all animals within the control (vehicle) group. In the case of groups treated with a sodium channel blocker steps of 10 to 30 mA were used.
(§1) All doses were calculated as base. ENa9 and ENa13 were dosed via the subcutaneous (s.c.) route at 1 ml/kg in a 2% v/v DMSO/saline vehicle 30 minutes prior to test. ENa7 and ENa14 were dosed orally (p.o.) in a 1% w/v methylcellulose/water vehicle at 2 ml/kg, 60 minutes before test. Compound ENK6 was dosed with via the intraperitoneal (i.p.) route 60 minutes before the test or via the s.c. route 15 minutes before test. In both cases ENK6 was dissolved in saline.
Induction of seizure is measured as an all-or-nothing effect scored as either present (+) or absent (0) for each animal. The data for each treatment group were recorded as the number of +'s and 0's at each current level employed and this information was then used to calculate the CC50 value (current required for 50% of animals to show seizure behaviour)+standard error of the mean according to the method of Kimball et al. (1957). Drug effects were calculated as the % change in CC50. Significant differences between drug-treated animals and appropriate vehicle treated groups were assessed according to the methods of Litchfield and Wilcoxon (1949). The statistical significance of differences between sodium channel blocker alone or in combination with ENK6 was assessed using a Student's t test.

[2] = Blood and brain concentrations in satellite animals of the MEST study; assay type: in vivo, rat; conditions: satellite rats; for change of blood or brain concentration of the sodium channel blocker in the presence of ENK6: ENK6 30 mg/kg i.p.; for concentration at 15 min / concentration at 30 min: rat, sc
Method: Satellite animals (n=3/group) received the same drugs or combinations of drugs as the test groups, and were culled at the appropriate time after dosing. Blood and brain samples were taken for analysis of the drug concentrations in these compartments.
as §1

[3] = system: rats; assay: FCA (Freunds Complete Adjuvant) model of inflammatory hypersensitivity to pain (weight bearing); assay type: in vivo, rat
Method: • Naïve weight bearing readings were taken. The hypersensitivity to pain was measured using the Rat incapacitance tester (Linton instruments). This instrument is serviced once a year and should be regularly calibrated • All rats then received an intraplantar injection of 100 ul of FCA (Freund's complete adjuvant) into the left hind paw. The FCA was sonicated for 15 minutes prior to use. • Approximately 23 hrs after administration of the FCA, pre-dose weight bearing readings were taken. All animals were then ranked and randomised for dosing according to their FCA window (predose difference in grams−naïve difference in grams). […] Celebrex 10 mg/kg p.o. (positive control) as appropriate according to ranking and randomisation. • Animals were assessed in the weight bearing apparatus 1 hour post dose. • The study was blind and randomised by FCA window using the Latin square method. • % reversals were calculated by using the naïve, pre-dose and post dose values as follows: % Reversal=[(Pre-dose−Post-dose)/(Pre-dose−Naïve)]×100 • Graphs and ED50 were calculated where appropriate using Prism4. • Statistical analysis was carried out using ANOVA followed by calculating the least square means using the statistical package Statistica 6.1 • From the dose response curves the ED20 was determined for the combination study • Naïve weight bearing readings were taken. The hypersensitivity to pain was measured using the Rat incapacitance tester (Linton instruments). This instrument is serviced once a year and should be regularly calibrated • All rats then received an intraplantar injection of 100 ul of FCA (Freund's complete adjuvant) into the left hind paw. The FCA was sonicated for 15 minutes prior to use. • Approximately 23 hrs after administration of the FCA, pre-dose weight bearing readings were taken. All animals were then ranked and randomised for dosing according to their FCA window (predose difference in grams−naïve difference in grams). […] See table 5 for details of the groups • Animals were assessed in the weight bearing apparatus 1 hour post dose. • The study was blind and randomised by FCA window using the Latin square method. • % reversals were calculated by using the naïve, pre-dose and post dose values as follows: % Reversal=[(Pre-dose−Post-dose)/(Pre-dose−Naïve)]×100 • Statistical analysis was carried out using ANOVA followed by calculating the least square means using the statistical package Statistica 6.1 • ED50 and ED20 values and graphs were calculated using prism5 • Naïve weight bearing readings were taken. The hypersensitivity to pain was measured using the Rat incapacitance tester (Linton instruments). This instrument is serviced once a year and should be regularly calibrated • All rats then received an intraplantar injection of 100 ul of FCA (Freund's complete adjuvant) into the left hind paw. The FCA was sonicated for 15 minutes prior to use. • Approximately 23 hrs after administration of the FCA, pre-dose weight bearing readings were taken. All animals were then ranked and randomised for dosing according to their FCA window (predose difference in grams—naïve difference in grams). Rats with FCA window less than 30 g were excluded from the study. • Animals were then dosed with the following in a fixed dose ratio of 1.25:1 according to ranking and randomisation. (Table 6) […] Graphs and ED50 were calculated where appropriate using Prism5 • Statistical analysis was carried out using ANOVA followed by calculating the least square means using the statistical package Statistica 6.1

[4] = sodium channel blocker 1 mg/kg s.c. in the presence of ENK6 (30 mg/kg i.p.)
[5] = sodium channel blocker 3 mg/kg s.c. in the presence of ENK6 (30 mg/kg i.p.)
[6] = sodium channel blocker alone, 1 mg/kg s.c., 30 minutes prior to test
[7] = sodium channel blocker alone, 3 mg/kg s.c., 30 minutes prior to test
[8] = ENK6 10 mg/kg s.c. + ENa7 1 mg/kg p.o., n = 2-3
[9] = ENK6 10 mg/kg s.c. + ENa7 3 mg/kg p.o., n = 2-3
[10] = ENK6 30 mg/kg s.c. + ENa7 1 mg/kg p.o., n = 2
[11] = ENK6 30 mg/kg s.c. + ENa7 3 mg/kg p.o., n = 2
[12] = ENK6 30 mg/kg i.p. + ENa13 1 mg/kg s.c., n = 2
[13] = ENK6 30 mg/kg i.p. + ENa13 3 mg/kg s.c., n = 2

Compound: Nc1nc(N)c(-c2cccc(Cl)c2Cl)c(CF)n1 [ENa15, R(−)-2,4-diamino-5-(2,3-dichlorophenyl)-6-fluoromethyl pyrimidine methanesulphonate]
increase in CC50 (mA) ([1]; sodium channel blocker 0.3 mg/kg p.o. in the presence of ENK6 30 mg/kg s.c.): 176% | increase in CC50 (mA) ([1]; sodium channel blocker 1 mg/kg p.o. in the presence of ENK6 30 mg/kg s.c.): 51% | effect on seizure threshold ([1]; sodium channel blocker alone, 0.3 mg/kg p.o., 60 minutes before the test): no increase in seizure threshold | increase in seizure threshold ([1]; sodium channel blocker alone, 1 mg/kg p.o., 60 minutes before the test): 292%

change of blood or brain concentration of the sodium channel blocker in the presence of ENK6 [2]: No increase
Compound: Cl.NC(=O)[C@@H]1CC[C@H](c2ccc(OCc3ccccc3F)cc2)N1 [ENa9, (5R)-5-(4-{[(2-fluorophenyl)methyl]oxy}phenyl)-L-prolinamide hydrochloride]
increase in CC50 (mA) [1, 4]: 133% | increase in CC50 (mA) [1, 5]: 323% | effect on seizure threshold [1, 6]: inactive | effect on seizure threshold [1, 7]: small, but significant increase in seizure threshold

concentration at 15 min ([2]; blood, 10 mg/kg, ENK6 10 mg/kg s.c. + ENa7 veh, n = 2-3, read-out: Blood concentration): 839 ng/mL | concentration at 15 min ([2]; blood, 30 mg/kg, ENK6 30 mg/kg s.c. + ENa7 veh, n = 2, read-out: Blood concentration): 1890 ng/mL | concentration at 15 min ([2]; brain, 10 mg/kg, ENK6 10 mg/kg s.c. + ENa7 veh, n = 2-3, read-out: Brain concentration): 1420 ng/g | concentration at 15 min ([2]; brain, 30 mg/kg, ENK6 30 mg/kg s.c. + ENa7 veh, n = 2, read-out: Brain concentration): 4500 ng/g | Blood concentration [2, 8]: 635 ng/mL | Brain concentration [2, 8]: 1254 ng/g | Blood concentration [2, 9]: 732 ng/mL | Brain concentration [2, 9]: 1504 ng/g | Blood concentration [2, 10]: 1542 ng/mL | Brain concentration [2, 10]: 3343 ng/g | Blood concentration [2, 11]: 1481 ng/mL | Brain concentration [2, 11]: 2484 ng/g
Compound: COc1ccc(-n2nnnc2C(F)(F)F)cc1CN[C@H]1CCCN[C@H]1c1ccccc1.Cl.Cl [ENK6, [2-Methoxy-5-(5-trifluoromethyl-tetrazol-1-yl)-benzyl]-([2S,3S]-2-phenyl-piperidin-3-yl)-amine dihydrochloride]
ED50 ([3]; Rattus norvegicus, po, compound alone, 0.1-3.0 mg/kg p.o. as printed, 1 hour post dose, range in brackets as printed, read-out: ED50, reversal of the FCA induced hypersensitivity): 0.4 mg/kg | reversal of the FCA induced hypersensitivity ([3]; compound alone, 0.1-3.0 mg/kg, 1 hour post dose): dose related reversal | ED20, reversal of the FCA induced hypersensitivity ([3]; compound alone, p.o. as printed, from the dose response curve): 0.08 mg/kg | ED20, reversal of the FCA induced hypersensitivity ([3]; compound alone, s.c. (summary of results)): approx 0.08 mg/kg | effect on the FCA induced hypersensitivity ([3]; each compound alone at its ED20 dose (ENa7 0.1 mg/kg p.o.; ENK6 0.08 mg/kg s.c.)): no significant effect | effect on seizure threshold ([1]; ENK6 alone, 10 mg/kg s.c., 15 minutes before testing (first experiment)): no effect on seizure threshold | effect on seizure threshold ([1]; ENK6 alone, 30 mg/kg i.p., 60 minutes before the test): no effect on seizure threshold | effect on seizure threshold ([1]; ENK6 alone, 30 mg/kg s.c., 15 minutes before testing): no effect on seizure threshold

concentration at 30 min ([2]; blood, 1 mg/kg, ENK6 veh + ENa13 1 mg/kg s.c., n = 2, read-out: Blood concentration): 499 ng/mL | concentration at 30 min ([2]; blood, 3 mg/kg, ENK6 veh + ENa13 3 mg/kg s.c., n = 2, read-out: Blood concentration): 1820 ng/mL | concentration at 30 min ([2]; brain, 1 mg/kg, ENK6 veh + ENa13 1 mg/kg s.c., n = 2, read-out: Brain concentration): 478 ng/g | concentration at 30 min ([2]; brain, 3 mg/kg, ENK6 veh + ENa13 3 mg/kg s.c., n = 2, read-out: Brain concentration): 1820 ng/g | change of blood or brain concentration of the sodium channel blocker in the presence of ENK6 [2]: No increase | Blood concentration [2, 12]: 416 ng/mL | Brain concentration [2, 12]: 508 ng/g | Blood concentration [2, 13]: 1160 ng/mL | Brain concentration [2, 13]: 1235 ng/g
Compound: CN1CC[C@]2(CC[C@H](c3ccc(OCc4ccccc4F)cc3)N2)C1=O.Cl [ENa13, (2R,5R)-2-(4-{[(2-Fluorophenyl)methyl]oxy}phenyl)-7-methyl-1,7-diazaspiro[4.4]nonan-6-one hydrochloride]
increase in CC50 (mA) [1, 4]: 118% | increase in CC50 (mA) [1, 5]: 129% | effect on seizure threshold [1, 6]: inactive | effect on seizure threshold [1, 7]: robust and significant increase in seizure threshold

From US20100105688A1, “PHARMACEUTICAL COMPOSITIONS COMPRISING 3,5-DIAMINO-6-(2,3-DICHLOPHENYL)-1,2,4-TRIAZINE OR R(-)-2,4-DIAMINO-5-(2,3-DICHLOROPHENYL)-6-FLUOROMETHYL PYRIMIDINE AND AN NK1” (GLAXO GROUP LIMITED, priority 2007, published 2010)
